18 compounds from patent publication US6469028B1, “Synthesis and use of retinoid compounds having negative hormone and/or anatgonist activities” (Allergan, Inc., priority 1995, dated 2002) can be followed below.

By Kd is commonly meant the constant that tells how readily two partners part at equilibrium.

Common to all, as to assay: Ligand binding assay
One test addresses T1, RARβ (Homo sapiens, UniProt P10826).
T1 sequence (P10826 1-455): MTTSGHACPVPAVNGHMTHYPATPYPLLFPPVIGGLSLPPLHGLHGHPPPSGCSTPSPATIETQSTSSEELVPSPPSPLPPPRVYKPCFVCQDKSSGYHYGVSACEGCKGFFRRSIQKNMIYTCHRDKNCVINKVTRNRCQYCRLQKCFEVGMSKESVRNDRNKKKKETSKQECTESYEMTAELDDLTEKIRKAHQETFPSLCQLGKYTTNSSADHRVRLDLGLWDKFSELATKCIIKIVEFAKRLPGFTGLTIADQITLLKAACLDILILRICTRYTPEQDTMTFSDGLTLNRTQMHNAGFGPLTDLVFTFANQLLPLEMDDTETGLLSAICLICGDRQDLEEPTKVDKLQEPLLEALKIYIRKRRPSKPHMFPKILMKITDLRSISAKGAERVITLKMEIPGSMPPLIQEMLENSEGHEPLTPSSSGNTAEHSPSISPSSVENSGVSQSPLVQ
The settings on record: read-out: Kd (nanomolar) RARβ. The source says: (§1) A holoreceptor transactivation assay and a ligand binding assay which measure the antagonist/agonist like activity of the compounds of the invention, or their ability to bind to the several retinoid receptor subtypes, respectively, are described in published PCT Application No. WO93/11755 (particularly on pages 30-33 and 37-41) published on Jun. 24, 1993, the specification of which is also incorporated herein by reference. A description of the holoreceptor transactivation assay is also provided below.
(§2) CV1 cells (5,000 cells/well) were transfected with an RAR reporter plasmid MTV-TREp-LUC (50 ng) along with one of the RAR expression vectors (10 ng) in an automated 96-well format by the calcium phosphate procedure of Heyman et al. Cell 68: 397-406. For RXR-α and RXR-γ transactivation assays, an RXR-responsive reporter plasmid CRBPII-tk-LUC (50 ng) along with the appropriate RXR expression vectors (10 ng) was used substantially as described by Heyman et al. above, and Allegretto et al. J. Biol. Chem. 268: 26625-26633. For RXR-β transactivation assays, an RXR-responsive reporter plasmid CPRE-tk-LUC ([…]) along with RXR-β expression vector ([…]) was used as described in above. These reporters contain DRI elements from human CRBPII and certain DRI elements from promotor, respectively (see Mangelsdorf et al. The Retinoids: Biology Chemistry and Medicine, pp. 319-349, Raven Press Ltd., New York and Heyman et al., cited above). A β-galactosidase (50 ng) expression vector was used as an internal control in the transfections to normalize for variations in transfection efficiency. The cells were transfected in triplicate for 6 hours, followed by incubation with retinoids for 36 hours, and the extracts were assayed for luciferase and […] activities. The detailed experimental procedure for holoreceptor transactivations has been described in Heyman et al. above, and Allegretto et al. cited above. The results obtained in this assay are expressed in EC50 numbers, as they are also in the chimeric receptor transactivation assay. The Heyman et al. Cell 68: 397-406, Allegretto et al. J. Biol. Chem. 268: 26625-26633, and Mangelsdorf et al. The Retinoids: Biology, Chemistry, and Medicine, pp. 319-349, Raven Press Ltd., New York, are expressly incorporated herein by reference. The results of ligand binding assay are expressed in Kd numbers. (See Cheng et al. Biochemical Pharmacology 22: 3099-3108, expressly incorporated herein by reference.) […]

In a further test the target is T2, RARγ (Homo sapiens, UniProt P13631).
T2 sequence (P13631 1-454): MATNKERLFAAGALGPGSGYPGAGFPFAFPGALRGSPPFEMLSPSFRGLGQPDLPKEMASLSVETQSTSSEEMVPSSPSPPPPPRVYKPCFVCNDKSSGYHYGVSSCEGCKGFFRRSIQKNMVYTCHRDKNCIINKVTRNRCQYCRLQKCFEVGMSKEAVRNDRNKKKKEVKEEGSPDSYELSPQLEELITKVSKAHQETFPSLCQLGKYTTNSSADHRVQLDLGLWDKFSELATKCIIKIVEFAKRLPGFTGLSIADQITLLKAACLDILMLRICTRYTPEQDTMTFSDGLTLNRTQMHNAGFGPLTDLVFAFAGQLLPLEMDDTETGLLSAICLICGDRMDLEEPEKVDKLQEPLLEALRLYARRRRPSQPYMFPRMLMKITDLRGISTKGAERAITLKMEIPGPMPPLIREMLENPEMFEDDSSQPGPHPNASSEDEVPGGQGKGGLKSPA
On the set-up: expressed in transfected cells; host or cells: CV1 cells. The conditions noted are these: read-out: Kd (nanomolar) RARγ.
Source text: as §1, §2

The next test addresses T3, RARα (Homo sapiens, UniProt P10276).
T3 sequence (P10276 1-462): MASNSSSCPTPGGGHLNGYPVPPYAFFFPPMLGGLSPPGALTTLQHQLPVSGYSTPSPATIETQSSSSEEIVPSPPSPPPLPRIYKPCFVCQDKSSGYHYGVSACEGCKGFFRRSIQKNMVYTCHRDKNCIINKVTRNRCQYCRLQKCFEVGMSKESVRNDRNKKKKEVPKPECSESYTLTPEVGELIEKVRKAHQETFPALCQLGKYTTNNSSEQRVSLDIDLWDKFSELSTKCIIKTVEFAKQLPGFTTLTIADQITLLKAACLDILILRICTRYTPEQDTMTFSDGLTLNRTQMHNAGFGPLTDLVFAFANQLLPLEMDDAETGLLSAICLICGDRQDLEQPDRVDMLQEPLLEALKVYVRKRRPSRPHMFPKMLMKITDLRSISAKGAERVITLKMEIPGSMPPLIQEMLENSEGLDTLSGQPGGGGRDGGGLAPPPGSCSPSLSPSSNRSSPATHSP
On the set-up: expressed in transfected cells; host or cells: CV1 cells. The conditions noted are these: read-out: Kd (nanomolar) RARα.
Source text: as §1, §2

On to `Cc1ccc(C2=CCC(C)(C)c3ccc(C(=O)Nc4ccc(C(=O)O)c(F)c4)cc32)cc1` [Compound 41, 2-Fluoro-4-[[(5,6-dihydro-5,5-dimethyl-8-(4methylphenyl)-2-naphthalenyl)carbonyl]amino]-benzoic acid], for which the dissociation constant (Kd) on RARβ amounted to 491 nM; at RARγ, 725 nM; on RARα, 5.1 nM.

Regarding `CC1(C)CC=C(c2cccc(O)c2)c2cc(C#Cc3ccc(C(=O)O)cc3)ccc21` [Compound 28, 4-[(5,6-Dihydro5,5-dimethyl-8-(3-hydroxyphenyl)-2-naphthalenyl)ethynyl]benzoic acid], the Kd amounted to 77 nM on RARβ, 236 nM at RARγ and 669 nM at RARα.

Regarding `Cc1cnc(C2=CCC(C)(C)c3ccc(C#Cc4ccc(C(=O)O)cc4)cc32)s1` [Compound 30, 4-[(5,6-Dihydro-5,5-dimethyl-8-(5-methylthiazol-2-yl)-2-naphthalenyl)ethynyl]benzoic acid], the results for the Kd at RARβ, on RARγ and on RARα were 141 nM, 219 nM and 683 nM, respectively.

With `Cc1cc(C)cc(C2=CCC(C)(C)c3ccc(C#Cc4ccc(C(=O)O)cc4)cc32)c1` [Compound 24, 4-[(5 6-Dihydro-5,5-dimethyl-8-(3,5-dimethylphenyl)-2-naphthalenyl)ethynyl]benzoic acid], the results for the Kd on RARβ, at RARγ and at RARα were 235 nM, 286 nM and 699 nM, respectively.

With `Cc1cccc(C2=CCC(C)(C)c3ccc(C#Cc4ccc(C(=O)O)cc4)cc32)c1` [Compound 20, 4-[(5,6-Dihydro-5,5-dimethyl-8-(3-methylphenyl)-2-naphthalenyl)ethynyl]benzoic acid], the dissociation constant (Kd) on RARβ came to 22 nM; on RARγ, 34 nM; at RARα it was 130 nM.

`CC1(C)CC=C(c2cccnc2)c2cc(C#Cc3ccc(C(=O)O)cc3)ccc21` [Compound 26, 4-[(5,6-Dihydro-5,5-dimethyl-8-(3-pyridyl)-2-naphthalenyl)ethynyl]benzoic acid]: the dissociation constant Kd was found to be 31 nM at RARβ, 36 nM at RARγ and 40 nM at RARα.

Turning to `CC(/C=C/C=C(\C)c1ccc2c(c1)C(c1ccc(C)cc1)=CCC2(C)C)=C\C(=O)O` [Compound 52, (E,E,E)-3-methyl-7-(5,6-dihydro-5,5-dimethyl-8-(4-methylphenyl)-2-naphthalenyl)-2,4,6-octatrienoic acid], the Kd on RARβ was 63 nM; on RARγ, 56 nM; at RARα, 60 nM.

With `Cc1ccc(C2=CCC(C)(C)c3ccc(C#Cc4ccc(C(=O)O)cc4)cc32)cn1` [Compound 18, 4-[(5,6-Dihydro-5,5-dimethyl-8-(2-methyl-5-pyridyl)-2-naphthalenyl)ethynyl]benzoic acid], the Kd on RARβ worked out at 11 nM; at RARγ, 24 nM; on RARα, 24 nM.

Take `Cc1ccc(C2=CCC(C)(C)c3cc(C(=O)C=Cc4ccc(C(=O)O)cc4)ccc32)cc1` [Compound 101, 4-[3-oxo-3-(7,8-dihydro-5-(4-methylphenyl)-8,8-dimethyl-2-naphthalenyl)-1-propenyl]-benzoic acid]: the Kd at RARβ is 143 nM; on RARγ, 637 nM; at RARα, 750 nM.

For `Cc1ccc(C2=CCC(C)(C)c3ccc(N=Nc4ccc(C(=O)O)cc4)cc32)cc1` [Compound 46b, 4-[(5,6-dihydro-5,5-dimethyl-8-(4-methylphenyl)-2-naphthalenyl)azo]-benzoic acid], the Kd at RARβ amounted to 3.7 nM; at RARγ, 5.8 nM; on RARα, 250 nM.

On to `Cc1ccc(C2=CCC(C)(C)c3ccc(/C=C/c4ccc(C(=O)O)cc4)cc32)cc1` [Compound 45], for which the Kd was found to be 2.8 nM at RARβ, 17 nM at RARγ and 12 nM at RARα.

As to `CC(C)(C)c1ccc(C2=CCC(C)(C)c3ccc(C#Cc4ccc(C(=O)O)cc4)cc32)cc1` [Compound 61, 4-[(5,6-Dihydro-5,5-dimethyl-8-(4-(1,1-dimethylethyl)phenyl)-2-naphthalenyl)ethynyl]benzoic acid], the dissociation constant Kd was 15 nM on RARβ, 16 nM at RARγ and 96 nM at RARα.

Turning to `CC1(C)CC=C(c2ccccn2)c2cc(C#Cc3ccc(C(=O)O)cc3)ccc21` [Compound 19, 4-[(5,6-Dihydro-5,5-dimethyl-8-(2-pyridyl)-2-naphthalenyl)ethynyl]benzoic acid], the Kd on RARβ amounted to 210 nM; at RARγ it was 659 nM; on RARα, 565 nM.

As for `CC1(C)CC=C(c2ccc(O)cc2)c2cc(C#Cc3ccc(C(=O)O)cc3)ccc21` [Compound 29, 4-[(5,6-Dihydro-5,5-dimethyl-8-(4-hydroxyphenyl)-2-naphthalenyl)ethynyl]benzoic acid], the values for the Kd at RARβ, at RARγ and at RARα were 48 nM, 80 nM and 234 nM, respectively.

As to `Cc1ccccc1C1=CCC(C)(C)c2ccc(C#Cc3ccc(C(=O)O)cc3)cc21` [Compound 27, 4-[(5,6-Dihydro-5,5-dimethyl-8-(2-methylphenyl)-2-naphthalenyl)ethynyl]benzoic acid], the values for the dissociation constant Kd at RARβ, on RARγ and at RARα were 14 nM, 26 nM and 69 nM, respectively.

On to `Cc1ccc(C2=CCC(C)(C)c3ccc(C(=S)Nc4ccc(C(=O)O)c(F)c4)cc32)cc1` [Compound 63, 2-fluoro-4-[[(5,6-dihydro-5,5-dimethyl-8-(4-methylphenyl)-2-naphthalenyl)thiocarbonyl]amino]-benzoic acid], for which the Kd on RARβ stood at 3220 nM; on RARα, 133 nM.

In the case of `Cc1nc(C2=CCC(C)(C)c3ccc(C#Cc4ccc(C(=O)O)cc4)cc32)sc1C` [Compound 32], the Kd at RARβ amounted to 89 nM; on RARγ, 169 nM.

`Cc1ccc(C2=CCC(C)(C)c3ccc(C(=O)Nc4ccc(C(=O)O)cc4)cc32)cc1` [Compound 36, 4-[[(5,6-Dihydro-5,5-dimethyl-8-(4-methylphenyl)-2-naphthalenyl)carbonyl]amino]-benzoic acid]: the dissociation constant Kd at RARβ amounted to 550 nM; at RARα, 13 nM.
